Reference: ChEMBL document CHEMBL1156454, “Essential requirement for sphingosine kinase 2 in a sphingolipid apoptosis pathway activated by FTY720 analogues” (J Biol Chem, 2007)
Active and inactive are the calls of the source. The rule behind the calls is not given here.

What was measured:
Lymphocyte [1] = test: Induction of apoptosis in MRL/MpJ-lpr/lpr mouse spleen lymphocytes assessed as increase in apoptotic cells in spleen at 1 mg/kg, ip by annexin V method; assay type: functional, organism-based; set-up: dose 1 mg/kg
Jurkat [2] = test: Induction of apoptosis in human Jurkat cells assessed as PARP cleavage at 5 uM after 16 hrs; assay type: functional, cell-based
Splenocyte [3] = test: Induction of apoptosis in mouse primary splenocytes assessed as cell death after 18 hrs; assay type: functional, cell-based
Jurkat [4] = test: Induction of apoptosis in human Jurkat cells assessed as cell death after 18 hrs; assay type: functional, cell-based
Jurkat [5] = test: Reversal of inhibition of mitochondrial function in human Jurkat cells after 18 hrs in presence of Z-VAD-fmk; assay type: functional, cell-based
Jurkat [6] = test: Resistance index, ratio of IC50 for 2-amino-4-(4-heptyloxyphenyl)-2-methylbutanol-resistant human Jurkat SBR3 mutant cells to IC50 for human wild type Jurkat cells; assay type: functional
Jurkat [7] = test: Inhibition of wild type human Jurkat cells after 18 hrs by MTT assay; assay type: functional, cell-based
Jurkat [8] = test: Inhibition of 2-amino-4-(4-heptyloxyphenyl)-2-methylbutanol-resistant human Jurkat SBR1 mutant cells proliferation after 18 hrs by MTT assay; assay type: functional, cell-based
Jurkat [9] = test: Inhibition of 2-amino-4-(4-heptyloxyphenyl)-2-methylbutanol-resistant human Jurkat SBR2 mutant cells proliferation after 18 hrs by MTT assay; assay type: functional, cell-based
Jurkat [10] = test: Resistance index, ratio of IC50 for 2-amino-4-(4-heptyloxyphenyl)-2-methylbutanol-resistant human Jurkat SBR1 mutant cells to IC50 for human wild type Jurkat cells; assay type: functional
Jurkat [11] = test: Resistance index, ratio of IC50 for 2-amino-4-(4-heptyloxyphenyl)-2-methylbutanol-resistant human Jurkat SBR2 mutant cells to IC50 for human wild type Jurkat cells; assay type: functional
Jurkat [12] = test: Inhibition of human 2-amino-4-(4-heptyloxyphenyl)-2-methylbutanol-resistant human Jurkat SBR3 mutant cells proliferation after 18 hrs by MTT assay; assay type: functional, cell-based
Jurkat [13] = test: Induction of apoptosis in human Jurkat SBR1 cells expressing Sphk1 after 18 hrs by MTT assay; assay type: functional, cell-based
Jurkat [14] = test: Induction of apoptosis in human Jurkat SBR1 cells expressing Sphk2 after 18 hrs by MTT assay; assay type: functional, cell-based
Jurkat [15] = test: Induction of apoptosis in human Jurkat cells assessed as increase in cytosolic calcium levels after 8 hrs; assay type: functional, cell-based
Lymphocyte [16] = test: Induction of apoptosis in MRL/MpJ-lpr/lpr mouse thymus lymphocytes assessed as increase in apoptotic cells in thymus at 1 mg/kg, ip by annexin V method; assay type: functional, organism-based; set-up: dose 1 mg/kg
Spleen = test: Drug level in MRL/MpJ-lpr/lpr mouse spleen assessed as (R)-2-amino-4-(4-(heptyloxy)phenyl)-2-methylbutyl dihydrogen phosphate levels per mg of tissue at 1 mg/kg, ip after 1 hr; assay type: ADME, organism-based; set-up: dose 1 mg/kg, route intraperitoneal; details: in vivo
Jurkat [17] = test: Induction of apoptosis in human Jurkat cells assessed as activation of effector capsases after 18 hrs; assay type: functional, cell-based
Lymphocyte [18] = test: Induction of apoptosis in MRL/MpJ-lpr/lpr mouse lymph node lymphocytes assessed as increase in apoptotic cells in lymph nodes at 1 mg/kg, ip by annexin V method; assay type: functional, organism-based; set-up: dose 1 mg/kg
[19] = Cell viability of Sphk2-knock out mouse embryonic fibroblasts assessed as resistant cells after 18 hrs by propidium iodide exclusion assay; assay type: functional, cell-based; details: Fibroblast
[20] = Drug level in MRL/Mpj-lpr/lpr mouse thymus assessed as (R)-2-amino-4-(4-(heptyloxy)phenyl)-2-methylbutyl dihydrogen phosphate levels per mg of tissue at 1 mg/kg, ip after 1 hr; assay type: ADME, organism-based; set-up: dose 1 mg/kg, route intraperitoneal; details: in vivo
Jurkat [21] = test: Induction of apoptosis in human Jurkat SBR1 mutant cells assessed as activation of effector capsases after 18 hrs; assay type: functional, cell-based
Splenocyte [22] = test: Induction of apoptosis in Sphk1-knock out mouse primary splenocytes assessed as resistant cells after 18 hrs by propidium iodide exclusion assay; assay type: functional, cell-based
Splenocyte [23] = test: Induction of apoptosis in Sphk2-knock out mouse primary splenocytes assessed as resistant cells after 18 hrs by propidium iodide exclusion assay; assay type: functional, cell-based
[24] = molecular target: Sphingosine kinase 1 (Homo sapiens) (UniProt Q9NYA1); test: Inhibition of Sphk1 expressed in HEK293 cells; assay type: cell-based
Sphingosine kinase 1 (Homo sapiens), sequence (Q9NYA1 whole entry): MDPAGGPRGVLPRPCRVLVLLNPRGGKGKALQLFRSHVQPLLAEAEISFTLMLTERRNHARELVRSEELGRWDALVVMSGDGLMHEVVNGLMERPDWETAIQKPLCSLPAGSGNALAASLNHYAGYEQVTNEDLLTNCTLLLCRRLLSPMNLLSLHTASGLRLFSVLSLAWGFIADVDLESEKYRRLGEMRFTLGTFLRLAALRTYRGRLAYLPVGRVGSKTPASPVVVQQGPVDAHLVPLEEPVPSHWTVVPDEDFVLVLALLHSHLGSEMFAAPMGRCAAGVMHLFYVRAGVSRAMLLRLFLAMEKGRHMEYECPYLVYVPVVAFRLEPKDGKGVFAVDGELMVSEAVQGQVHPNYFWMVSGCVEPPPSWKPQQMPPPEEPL

Row | Structure (SMILES) | IC50 (Jurkat [7]) [µM] | IC50 (Jurkat [8]) [µM] | IC50 (Jurkat [9]) [µM] | IC50 (Jurkat [12]) [µM] | Ratio IC50 (Jurkat [6]) | Ratio IC50 (Jurkat [10]) | Ratio IC50 (Jurkat [11]) | other results
1 | CCCCCCCOc1ccc(CC[C@](C)(N)CO)cc1 |  |  |  |  |  |  |  | Activity (Lymphocyte [1]): Active; Activity (Jurkat [2]): inactive; Activity (Splenocyte [3]): inactive; Activity (Jurkat [4]): inactive
2 | CCCCCCCCc1ccc(CCC(N)(CO)CO)cc1 |  |  |  |  |  |  |  | Activity (Jurkat [5]): Active
3 | COc1cc([C@@H]2c3cc4c(cc3[C@@H](O[C@@H]3O[C@@H]5CO[C@@H](C)O[C@H]5[C@H](O)[C@H]3O)[C@H]3COC(=O)[C@H]23)OCO4)cc(OC)c1O |  |  |  |  |  |  |  | Activity (Jurkat [8]): Active; Activity (Jurkat [9]): Active; Activity (Jurkat [12]): Active
4 | CCCCCCCOc1ccc(CC[C@@](C)(N)COP(=O)(O)O)cc1 |  |  |  |  |  |  |  | Activity (Jurkat [7]): inactive; Activity (Splenocyte [3]): inactive; Activity [24]: inactive

Now from value to compound, other results behind:

Row | IC50 (Jurkat [7]) [µM] | IC50 (Jurkat [8]) [µM] | IC50 (Jurkat [9]) [µM] | IC50 (Jurkat [12]) [µM] | Structure (SMILES) | Ratio IC50 (Jurkat [6]) | Ratio IC50 (Jurkat [10]) | Ratio IC50 (Jurkat [11]) | other results
5 | 3.75 | 6.57 | 5.29 | 4.12 | CCCCCCCCCCCCCC[C@@H](O)[C@@H](O)[C@@H](N)CO (single isomer, unassigned) [PHYTOSPHINGOSINE] | 1.1 | 1.8 | 1.4 | 
6 | 3.53 | 4.9 | 3.68 | 6.31 | CCCCCCCCCCCCCCC[C@@H](O)[C@@H](N)CO [DIHYDROSPINGOSINE] | 1.8 | 1.4 | 1.3 | 
7 | 2.32 | 8.72 | 7.72 | 7.12 | CCCCCCCOc1ccc(CC[C@@](C)(N)CO)cc1 | 3.1 | 3.8 | 3.3 | Activity (Jurkat [13]): Active; Activity (Jurkat [14]): Active; Activity (Jurkat [15]): Active; Activity (Lymphocyte [16]): inactive; Activity (Spleen): < 0.2 pmol/mg; Activity (Lymphocyte [1]): Active; Activity (Jurkat [17]): Active; Activity (Lymphocyte [18]): Active; Activity [19]: Active; Activity [20]: < 0.2 pmol/mg; Activity (Jurkat [2]): Active; Activity (Jurkat [21]): inactive; Activity (Splenocyte [22]): inactive; Activity (Splenocyte [23]): Active
8 | 2.01 | 3.48 | 2.88 | 3.38 | CCCCCCCCCCCCC/C=C/[C@@H](O)[C@@H](N)CO [SPHINGOSINE] | 1.7 | 1.7 | 1.4 | Activity [19]: inactive
